This is an account of results in US20160101188A1, “NOVEL NANOCARRIER DELIVERED CANCER CHEMOTHERAPEUTIC AGENTS” (UNIVERSITY OF CINCINNATI, priority 2013, published 2016).

The structures appear in SMILES notation. Read-outs that look alike come from different tables or passages of the source. Some results are limits rather than exact numbers.

In experiment [1] the test system is MCF7 (breast cancer) cells. Nature of the experiment: MTT cytotoxicity assay in MCF7 breast cancer cells. Format: cell-based. The following applies: 65 hours incubation, read-out: IC50, viability of MCF7 cells from the MTT assay. On the procedure:
The cyctoxicity of compounds was determined in MCF 7 (breast cancer) cells.
MCF7 cells were grown in RPMI 1640 media with 10 nM estrogen and 1 mM insulin. Cells were tyripsinized and resuspended at a density of 2.2×10^4 cells per mL. 500 μL of this suspension was added to each well in a 24 well plate. The plates were incubated at 37° C. and 5% CO2 atmosphere overnight. The media was changed, and plates were dosed in triplicate with compound dissolved in DMSO. Cells were dosed not to exceed 0.5% DMSO in solution. Cells were dosed to a final concentration of 100, 50, 25, 12.5, and 6.25 μM of compound. 5-Flurouracil was used as a positive control and dosed in the same manner. Plates were incubated for 65 hours prior to the addition of MTT solution. 500 μL of a 193 μg/mL MTT and media solution was added to each well. Plates were incubated for 3 hours. The MTT solution was removed and 500 μL of DMSO was added to each well. Cells were imaged using GS 800 Bio Rad scanner and Quality One Software. IC50 curves were determined by plotting viability verses compound concentration. Kaleidagraph software was used to calculate the R value for each logarithmic curve fitting.

Another experiment relates to CNS SF-268. Nature of the experiment: NCI in vitro cell line screen (SRB), single dose. The experiment is classed as cell-based, human. As to conditions: CNS SF-268, single dose of 10 μM. As for the experimental part:
(§1) Four of the preliminary lead compounds: three nucleosides (JT-1-10, VAL-1-15/42, VAL-1-16) and one nucleobase (KB-1-17)—were submitted to the National Cancer Institute for the in vitro cell line screening project (IVCLSP). The screening consisted in the evaluation of this compound against the 60 cell lines at a single dose of 10 μM.
(§2) The human tumor cell lines of the cancer screening panel are grown in RPMI 1640 medium containing 5% fetal bovine serum and 2 mM L-glutamine. For a typical screening experiment, cells are inoculated into 96 well microtiter plates in 100 μL at plating densities ranging from 5,000 to 40,000 cells/well depending on the doubling time of individual cell lines. After cell inoculation, the microtiter plates are incubated at 37° C., 5% CO2, 95% air and 100% relative humidity for 24 h prior to addition of experimental drugs.
(§3) After 24 h, two plates of each cell line are fixed in situ with TCA, to represent a measurement of the cell population for each cell line at the time of drug addition (Tz). Experimental drugs are solubilized in dimethyl sulfoxide at 400-fold the desired final maximum test concentration and stored frozen prior to use. At the time of drug addition, an aliquot of frozen concentrate is thawed and diluted to twice the desired final maximum test concentration with complete medium containing 50 μg/ml gentamicin. Additional four, 10-fold or ½ log serial dilutions are made to provide a total of five drug concentrations plus control. Aliquots of 100 μl of these different drug dilutions are added to the appropriate microtiter wells already containing 100 μl of medium, resulting in the required final drug concentrations.
(§4) Following drug addition, the plates are incubated for an additional 48 h at 37° C., 5% CO2, 95% air, and 100% relative humidity. For adherent cells, the assay is terminated by the addition of cold TCA. Cells are fixed in situ by the gentle addition of 50 μl of cold 50% (w/v) TCA (final concentration, 10% TCA) and incubated for 60 minutes at 4° C. The supernatant is discarded, and the plates are washed five times with tap water and air dried. Sulforhodamine B (SRB) solution (100 μl) at 0.4% (w/v) in 1% acetic acid is added to each well, and plates are incubated for 10 minutes at room temperature. After staining, unbound dye is removed by washing five times with 1% acetic acid and the plates are air dried. Bound stain is subsequently solubilized with 10 mM trizma base, and the absorbance is read on an automated plate reader at a wavelength of 515 nm. For suspension cells, the methodology is the same except that the assay is terminated by fixing settled cells at the bottom of the wells by gently adding 50 μl of 80% TCA (final concentration, 16% TCA). Using the seven absorbance measurements [time zero, (Tz), control growth, (C), and test growth in the presence of drug at the five concentration levels (Ti)], the percentage growth is calculated at each of the drug concentrations levels. Percentage growth inhibition is calculated as:
(§5) [(Ti−Tz)/(C−Tz)]×100 for concentrations for which Ti>/=Tz
(§6) [(Ti−Tz)/Tz]×100 for concentrations for which Ti<Tz.
(§7) Three dose response parameters are calculated for each experimental agent. Growth inhibition of 50% (GI50) is calculated from [(Ti−Tz)/(C−Tz)]×100=50, which is the drug concentration resulting in a 50% reduction in the net protein increase (as measured by SRB staining) in control cells during the drug incubation. The drug concentration resulting in total growth inhibition (TGI) is calculated from Ti=Tz. The LC50 (concentration of drug resulting in a 50% reduction in the measured protein at the end of the drug treatment as compared to that at the beginning) indicating a net loss of cells following treatment is calculated from [(Ti−Tz)/Tz]×100=−50. […]

For experiment [2], the system named is Non-Small Cell Lung HOP-92. As to the kind of experiment: NCI in vitro cell line screen (SRB), single dose. The experiment is classed as cell-based, human. As to conditions: Non-Small Cell Lung HOP-92, single dose of 10 μM. On the procedure:
as §1, §2, §3, §4, §5, §6, §7

The subject of another experiment is Prostate PC-3. Nature of the experiment: NCI in vitro cell line screen (SRB), single dose. Format: cell-based, human. As to conditions: Prostate PC-3, single dose of 10 μM. As for the experimental part:
as §1, §2, §3, §4, §5, §6, §7

Another experiment relates to γ-H2AX. Nature of the experiment: Western blot of drug-treated MCF7 cells detecting double-strand break marker γ-H2AX. Format: cell-based. As to conditions: 4.5 μM, 16 hours, nuclear extract, two trials (FIG. 3). As for the experimental part: Vehicle controls were simultaneously prepared by treatment with DMSO.
Nuclear proteins from both the drug-treated and control samples were conducted using NE-PER Nuclear and Cytoplasmic Extraction Kit (Thermo Scientific) using the manufacturer's protocol. In detail, cells were harvested by trypsin-EDTA and centrifuged at 500×g for 5 minutes. The cells were washed to remove traces of trypsin by suspending in 1×PBS, followed by centrifugation at 500×g for 2-3 minutes. The supernatant was removed leaving the cell pellet as dry as possible. A 200 μL volume of ice-cold cytoplasmic extraction reagent I (CER-I), treated Halt™ Protease & Phosphatase Inhibitor Cocktail (Thermo Scientific), was added to the pellet. The cell pellet was suspended by vortexing vigorously for 15 seconds and then incubated on ice for 10 minutes. The mixture is then treated with 11 μL of ice-cold cytoplasmic extraction reagent II (CER-II) and mixed by vortexing on the highest setting for 5 seconds followed by incubation on ice of one minute to allow complete release of cytoplasmic contents. […]
Protein concentration in each sample and control was determined by Bradford Assay using Coomassie Plus™ (Bradford) Assay Kit (Thermo Scientific), applying the manufacturer's instruction. […] The absorbance is then measured at 595 nm using a Synergy 4 plate reader (Biotek). […]

Usually IC50 stands for the midpoint of a concentration-inhibition curve. For `CC(C)(C)C(OCc1c[nH]c(=O)[nH]c1=O)c1ccccc1[N+](=O)[O-]` (stereo not drawn) [KB-1-17, 5-[1-(2-nitrophenyl)-2,2-(dimethyl)propoxymethyl]uracil], the IC50 in experiment [1] was 81 µM. Besides, the results for the “Growth Percent” value (with CNS SF-268; in experiment [2]; with Prostate PC-3) were 91%, 68% and 93%, respectively.
`CC(C)(C)C(OCc1cn([C@H]2C[C@H](O)[C@@H](CO)O2)c(=O)[nH]c1=O)c1ccc(C#Cc2ccccc2)cc1[N+](=O)[O-]` (stereo partly drawn) [VAL-1-36/38, 5-[1-(4-{2-phenylacetylenyl}-2-nitrophenyl)-2,2-(dimethyl)-1-propoxymethyl]-2′-deoxyuridine]: the IC50 in experiment [1] worked out at 9 ± 1 µM. Moreover, the “double-strand break marker γ-H2AX (DNA damage response)” value with γ-H2AX is given as “causes a DNA damage response”.
Regarding `CC(C)(C)C(OCc1cn([C@H]2C[C@H](O)[C@@H](CO)O2)c(=O)[nH]c1=O)c1ccccc1Cl` (stereo partly drawn) [MPB-1-49, 5-[1-(2-chlorophenyl)-2,2-(dimethyl)propoxymethyl]-2′-deoxyundine], the IC50 in experiment [1] amounted to 80 µM.
On the same count and under the same terms, the value for `CC(C)(C)C(OCc1cn([C@H]2C[C@H](O)[C@@H](CO)O2)c(=O)[nH]c1=O)c1c(Cl)cccc1Cl` (stereo partly drawn) [MPB-1-57, 5-[1-(2,6-dichlorophenyl)-2,2-(dimethyl)propoxymethyl]-2′-deoxyuridine] was 60 µM; that for `CC(C)(C)C(OCc1cn([C@H]2C[C@H](O)[C@@H](CO)O2)c(=O)[nH]c1=O)c1ccc(C#C[Si](C)(C)C)cc1[N+](=O)[O-]` (stereo partly drawn) [VAL-1-49, 5-[1-(4-{trimethylsilyl}acetylenyl-2-nitrophenyl)-2,2-(dimethyl)-1-propoxymethyl]-2′-deoxyuridine] was 29 ± 3 µM.
With `CC(C)(C)C(OCc1cn([C@H]2C[C@H](O)[C@@H](CO)O2)c(=O)[nH]c1=O)c1ccccc1C#N` (stereo partly drawn) [VAL-1-28, 5-[1-(2-cyanophenyl)-2,2-(dimethyl)propoxymethyl]-2′-deoxyuridine], the IC50 in experiment [1] was 106 µM.
In the case of `CC(C)C(OCc1c[nH]c(=O)[nH]c1=O)c1ccccc1` (stereo not drawn) [KB-1-1, 5-[1-phenyl-2-(methyl)propoxymethyl]uracil], the IC50 in experiment [1] (Homo sapiens, MCF7, 65 h) was > 200 µM.
Still for that read-out and setting: the value for `CC(OCc1cn([C@H]2C[C@H](O)[C@@H](CO)O2)c(=O)[nH]c1=O)c1ccccc1` (stereo partly drawn) [VAL-1-10, 5-[1-(phenyl)ethoxymethyl]-2′-deoxyuridine] was > 200 µM; that for `O=c1[nH]c(=O)n([C@H]2C[C@H](O)[C@@H](CO)O2)cc1COC(c1ccccc1)c1ccccc1` [KB-1-10, 5-[(diphenyl)methoxymethyl]-2′-deoxyuridine] was 160 µM.
As to `Cc1ccccc1C(OCc1cn([C@H]2C[C@H](O)[C@@H](CO)O2)c(=O)[nH]c1=O)C(C)(C)C` (stereo partly drawn) [KB-1-100, 5-[1-(2-methyl)phenyl-2,2-(dimethyl)propoxymethyl]-2′-deoxyuridine], in experiment [1], the IC50 turned out to be 121 µM.
On the same count and under the same terms, the value for `COc1ccccc1C(OCc1cn([C@H]2C[C@H](O)[C@@H](CO)O2)c(=O)[nH]c1=O)C(C)(C)C` (stereo partly drawn) [MPB-1-36, 5-[1-(2-methoxyphenyl)-2,2-(dimethyl)propoxymethyl]-2′-deoxyuridine] was 94 µM; that for `O=c1[nH]c(=O)n([C@H]2C[C@H](O)[C@@H](CO)O2)cc1COC(c1ccccc1[N+](=O)[O-])C1CCCCC1` (stereo partly drawn) [PRW-1-18, 5-[1-(2-nitro)phenyl-1-(cyclohexyl)methoxymethyl]-2′-deoxyuridine] was 63 µM.
Take `CC(OCc1cn([C@H]2C[C@H](O)[C@@H](CO)O2)c(=O)[nH]c1=O)c1ccccc1[N+](=O)[O-]` (stereo partly drawn) [VAL-1-26, 5-[1-(2-nitrophenyl)ethoxymethyl]-2′-deoxyuridine]: the IC50 in experiment [1] is ~150 µM.
On to `CC(C)(C)C(OCc1cn([C@H]2C[C@H](O)[C@@H](CO)O2)c(=O)[nH]c1=O)c1ccc(I)cc1[N+](=O)[O-]` (stereo partly drawn) [MPB-1-33, 5-[1-(4-iodo-2-nitrophenyl)-2,2-(dimethyl)propoxymethyl]-2′-deoxyuridine], for which, in experiment [1], the IC50 stood at 56 ± 6 µM.
